According to ChEMBL document CHEMBL1201862, “PubChem BioAssay data set” (2004):
Calls of active or inactive are those of the source.

Key:
[1] = NIH-3T3 fibroblast cytotoxicity, dose response, cytotoxicity control, cell-based, fluorescence, Alamar Blue, secondary assay (AID 2327); assay type: functional;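 further: NIH-3T3 mouse fibroblasts cultured with fluconazole at 8 µg/mL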
[2] = C. albicans growth with fluconazole, confirmation, fluorescence, retest (AID 2467); assay type: functional, cell-based
[3] = inhibitors of intracellular T. cruzi replication, confirmation, NIH3T3 host cells, beta-gal luminescence (AID 2044); assay type: functional, cell-based;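 further: intracellular parasites grown in NIH/3T3 mouse fibroblasts as host cells; luminescent beta-galactosidase reporter signal from transgenic T. cruzi replicating inside host cells; inhibitors lower the luminescence signal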
[4] = cytotoxicity toward NIH3T3 fibroblasts, dose response, counter-screen, cell-based, ATP luminescence, mouse fibroblasts (AID 2010); assay type: functional;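 further: cells exposed to compound for about 90 hours before reading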
[5] = target: T1, Microphthalmia-associated transcription factor (Homo sapiens, UniProt O75030); assay: TRPM1 promoter luciferase signal decrease, dose response, MITF inhibitor project, cell-based, SK-MEL-5, cherry-picked, set 3 (AID 493073); assay type: functional
T1 sequence (O75030 whole entry): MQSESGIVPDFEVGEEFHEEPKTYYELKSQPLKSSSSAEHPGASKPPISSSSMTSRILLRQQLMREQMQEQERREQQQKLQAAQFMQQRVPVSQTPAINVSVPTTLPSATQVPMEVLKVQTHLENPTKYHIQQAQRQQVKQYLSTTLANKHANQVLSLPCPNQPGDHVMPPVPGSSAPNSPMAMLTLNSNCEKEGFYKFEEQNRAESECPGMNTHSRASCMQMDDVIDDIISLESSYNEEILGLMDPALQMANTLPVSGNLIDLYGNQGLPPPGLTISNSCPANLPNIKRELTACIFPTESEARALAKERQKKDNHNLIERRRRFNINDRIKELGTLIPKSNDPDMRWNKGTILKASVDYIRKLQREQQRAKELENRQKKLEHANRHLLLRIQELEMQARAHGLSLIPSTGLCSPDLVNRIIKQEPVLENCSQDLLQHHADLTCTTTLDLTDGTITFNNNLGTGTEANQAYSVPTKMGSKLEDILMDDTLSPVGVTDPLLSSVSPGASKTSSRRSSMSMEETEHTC

Protein Wnt-3a = Protein Wnt-3a (Mus musculus, UniProt P27467); assay: Wnt3a-driven reporter signaling inhibition, dose response, selectivity assay for Gli-SUFU antagonist project, Wnt-LIGHT cells, luminescence (AID 651570); assay type: functional; details: read-out: IC50_Mean;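 further: Wnt-LIGHT reporter cells stimulated with conditioned medium from Wnt3a-producing cells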
BJ [6] = assay: cytotoxicity toward BJ-TERT fibroblasts, dose response, cell-based, RAS-independent, luminescence (AID 1933); assay type: functional; details: Homo sapiens
BJ [7] = assay: cells; assay type: functional, cell-based; details: Homo sapiens
BJ [8] = assay: cytotoxicity toward BJ-TERT-LT-ST fibroblasts, dose response, cell-based, RAS-independent, luminescence (AID 1935); assay type: functional; details: Homo sapiens;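 further: BJ fibroblasts immortalized with TERT plus LT and ST oncogenes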
[9] = cytotoxicity toward DRD oncogenic fibroblasts, dose response, cell-based, non-viral oncogenic, luminescence (AID 1934); assay type: functional; details: Homo sapiens
BJ [10] = assay: cytotoxicity toward Ras-transformed BJeLR fibroblasts, dose response, cell-based, alamar blue fluorescence, cherrypicked samples (AID 2631); assay type: functional; details: Homo sapiens;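 further: confirmatory dose-response assay in RAS-dependent BJ fibroblasts engineered with TERT, LT and ST, with cytotoxicity read by fluorescence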
Paired box protein Pax-8 = Paired box protein Pax-8 (Homo sapiens, UniProt Q06710); assay: inhibitors of PAX8-driven TPO luciferase reporter, dose response, RMG-I cells, cherry-pick (AID 687027); assay type: functional, cell-based;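 further: luciferase reporter driven by Pax8 target thyroperoxidase promoter measured by SteadyGlo luminescence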
[11] = non-specific cell cytotoxicity, dose response, cytotoxicity control for PAX8 inhibitor project, plate reader, dry powder samples (AID 743021); assay type: functional, cell-based
[12] = target: Ras and Rab interactor 1/Tyrosine-protein kinase ABL1 (Homo sapiens, UniProt P00519+Q13671); assay type: functional;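 further: biochemical TR-FRET dose-response test measuring inhibition of binding between Rin1 and Abl proteins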
[13] = target: T2, Low molecular weight phosphotyrosine protein phosphatase (Homo sapiens, UniProt P24666); assay type: functional; details: read-out: IC50_Mean;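 further: Dose-response confirmation assay measuring inhibition of LMPTP enzyme activity by fluorescence intensity read-out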
T2 sequence (P24666 whole entry): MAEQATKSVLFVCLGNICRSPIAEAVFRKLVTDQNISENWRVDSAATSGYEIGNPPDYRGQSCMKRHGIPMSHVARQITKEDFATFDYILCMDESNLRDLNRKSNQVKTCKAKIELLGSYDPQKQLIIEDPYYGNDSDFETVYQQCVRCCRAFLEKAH

Cytochrome P450 2C9 = Cytochrome P450 2C9 (Homo sapiens, UniProt P11712)
Cytochrome P450 3A4 = Cytochrome P450 3A4 (Homo sapiens, UniProt P08684);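 further: CYP3A4 tested as one member of a cytochrome P450 panel screen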
[14] = target: T3, Serine/threonine-protein phosphatase (Candida dubliniensis (strain CD36 / CBS 7987 / NCPF 3949 / NRRLY-17841) (Yeast), UniProt B9W6M3); assay: calcineurin pathway inhibitors in yeast reporter, dose response, S. cerevisiae, CDRE-lacZ, luminescence, secondary (AID 2388); assay type: functional, cell-based;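 further: yeast reporter cells carrying a calcineurin-responsive lacZ construct stimulated with calcium chloride; luminescent beta-galactosidase reporter signal in whole cells rather than isolated phosphatase activity; potency for inhibition where a drop in reporter signal means calcineurin blockade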
T3 sequence (B9W6M3 whole entry): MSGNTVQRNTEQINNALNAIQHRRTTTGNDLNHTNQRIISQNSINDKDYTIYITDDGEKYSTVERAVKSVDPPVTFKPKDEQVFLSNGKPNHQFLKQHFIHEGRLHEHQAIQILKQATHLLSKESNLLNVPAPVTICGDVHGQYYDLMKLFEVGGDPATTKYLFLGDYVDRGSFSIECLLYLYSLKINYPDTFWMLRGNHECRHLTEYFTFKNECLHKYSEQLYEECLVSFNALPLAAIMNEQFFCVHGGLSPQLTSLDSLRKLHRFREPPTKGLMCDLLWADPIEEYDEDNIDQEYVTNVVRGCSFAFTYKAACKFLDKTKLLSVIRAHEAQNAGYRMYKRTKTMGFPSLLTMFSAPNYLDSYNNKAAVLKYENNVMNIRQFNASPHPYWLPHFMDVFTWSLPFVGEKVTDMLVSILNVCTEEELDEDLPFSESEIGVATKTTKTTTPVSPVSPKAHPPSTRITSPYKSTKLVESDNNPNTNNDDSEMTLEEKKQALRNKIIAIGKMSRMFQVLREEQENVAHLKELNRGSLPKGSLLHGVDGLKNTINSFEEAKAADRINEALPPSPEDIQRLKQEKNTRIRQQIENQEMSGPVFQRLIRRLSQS

[15] = target: ATP-dependent molecular chaperone HSP82 (Candida albicans (strain WO-1) (Yeast), UniProt C4YTQ8); assay: loss of DOC-induced GRE-beta-galactosidase reporter signal, dose response, Hsp90 inhibitor project, S. cerevisiae, luminescence (AID 2400); assay type: functional, cell-based;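 further: beta-galactosidase luminescence from glucocorticoid response element reporter as proxy for Hsp90 function; inhibitor potency where signal loss means Hsp90 inhibition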
Cytochrome P450 2C19 = Cytochrome P450 2C19 (Homo sapiens, UniProt P33261); assay: Cytochrome panel assay with activity outcomes. Panel member name: p450-cyp2c19 Compounds with AC50 equal or less than 10 uM are considered active; assay type: functional; details: read-out: AC50
Sequence of Cytochrome P450 2C19 (P33261 whole entry): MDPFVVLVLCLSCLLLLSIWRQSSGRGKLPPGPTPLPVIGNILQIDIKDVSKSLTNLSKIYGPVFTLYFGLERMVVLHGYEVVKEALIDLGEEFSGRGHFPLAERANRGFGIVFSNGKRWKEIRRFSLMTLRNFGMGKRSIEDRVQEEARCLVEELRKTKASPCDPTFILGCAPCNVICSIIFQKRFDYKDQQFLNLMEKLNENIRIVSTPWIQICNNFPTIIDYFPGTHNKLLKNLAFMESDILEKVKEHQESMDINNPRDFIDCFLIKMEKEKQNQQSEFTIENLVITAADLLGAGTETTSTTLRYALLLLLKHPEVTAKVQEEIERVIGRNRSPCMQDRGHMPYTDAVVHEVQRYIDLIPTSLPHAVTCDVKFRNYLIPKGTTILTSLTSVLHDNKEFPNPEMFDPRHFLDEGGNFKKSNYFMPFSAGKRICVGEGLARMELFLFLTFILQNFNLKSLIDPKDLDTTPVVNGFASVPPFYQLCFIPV

Sequence of Cytochrome P450 3A4 (P08684 whole entry): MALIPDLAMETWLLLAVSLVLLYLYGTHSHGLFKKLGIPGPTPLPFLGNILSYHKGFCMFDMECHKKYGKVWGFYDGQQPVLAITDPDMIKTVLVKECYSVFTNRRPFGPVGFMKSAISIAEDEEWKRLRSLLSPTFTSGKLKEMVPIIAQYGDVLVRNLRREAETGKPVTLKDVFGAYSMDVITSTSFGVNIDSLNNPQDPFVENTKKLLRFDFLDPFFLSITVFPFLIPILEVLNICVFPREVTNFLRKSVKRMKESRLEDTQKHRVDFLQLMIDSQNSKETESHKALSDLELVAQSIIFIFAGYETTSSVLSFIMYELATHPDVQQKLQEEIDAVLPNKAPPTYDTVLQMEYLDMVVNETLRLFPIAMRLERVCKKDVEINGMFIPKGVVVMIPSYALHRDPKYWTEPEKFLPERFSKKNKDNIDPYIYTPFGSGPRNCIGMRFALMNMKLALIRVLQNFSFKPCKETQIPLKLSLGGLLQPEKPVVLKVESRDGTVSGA
Sequence of Cytochrome P450 2C9 (P11712 whole entry): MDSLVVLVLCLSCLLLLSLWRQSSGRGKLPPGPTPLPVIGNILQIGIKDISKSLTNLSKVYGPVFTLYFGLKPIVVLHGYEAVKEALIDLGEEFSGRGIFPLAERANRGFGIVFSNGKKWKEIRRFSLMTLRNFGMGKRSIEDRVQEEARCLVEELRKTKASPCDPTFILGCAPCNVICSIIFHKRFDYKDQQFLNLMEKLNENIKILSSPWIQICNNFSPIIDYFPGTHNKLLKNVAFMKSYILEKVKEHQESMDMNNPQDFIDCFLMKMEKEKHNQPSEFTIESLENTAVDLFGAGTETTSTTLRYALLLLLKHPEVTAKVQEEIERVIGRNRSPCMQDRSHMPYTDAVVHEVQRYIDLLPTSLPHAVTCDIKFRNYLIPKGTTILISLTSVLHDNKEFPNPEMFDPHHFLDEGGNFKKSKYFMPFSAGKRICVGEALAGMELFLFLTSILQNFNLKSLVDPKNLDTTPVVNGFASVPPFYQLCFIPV
Sequence of Paired box protein Pax-8 (Q06710 whole entry): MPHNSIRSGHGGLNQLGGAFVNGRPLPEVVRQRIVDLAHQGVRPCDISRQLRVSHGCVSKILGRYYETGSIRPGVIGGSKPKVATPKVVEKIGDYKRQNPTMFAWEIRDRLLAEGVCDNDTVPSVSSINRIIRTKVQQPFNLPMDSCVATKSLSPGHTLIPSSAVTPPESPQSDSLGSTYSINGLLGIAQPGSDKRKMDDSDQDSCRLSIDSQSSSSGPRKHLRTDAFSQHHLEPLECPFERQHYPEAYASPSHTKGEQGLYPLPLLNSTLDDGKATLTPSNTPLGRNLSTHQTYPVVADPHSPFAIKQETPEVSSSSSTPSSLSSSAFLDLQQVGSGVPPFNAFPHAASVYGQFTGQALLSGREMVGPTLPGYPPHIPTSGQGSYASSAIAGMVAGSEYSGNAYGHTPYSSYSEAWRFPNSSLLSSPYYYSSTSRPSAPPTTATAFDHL
Sequence of Protein Wnt-3a (P27467 whole entry): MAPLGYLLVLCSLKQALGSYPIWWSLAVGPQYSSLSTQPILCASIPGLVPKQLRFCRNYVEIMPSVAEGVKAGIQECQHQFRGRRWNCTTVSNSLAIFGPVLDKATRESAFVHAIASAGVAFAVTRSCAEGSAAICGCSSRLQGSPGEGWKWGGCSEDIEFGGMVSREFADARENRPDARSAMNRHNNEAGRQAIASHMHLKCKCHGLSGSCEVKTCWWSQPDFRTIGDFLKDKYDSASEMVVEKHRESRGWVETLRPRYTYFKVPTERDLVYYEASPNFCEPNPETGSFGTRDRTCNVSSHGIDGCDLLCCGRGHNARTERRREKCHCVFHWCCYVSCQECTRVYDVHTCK
Sequence of Ras and Rab interactor 1/Tyrosine-protein kinase ABL1 (P00519 whole entry): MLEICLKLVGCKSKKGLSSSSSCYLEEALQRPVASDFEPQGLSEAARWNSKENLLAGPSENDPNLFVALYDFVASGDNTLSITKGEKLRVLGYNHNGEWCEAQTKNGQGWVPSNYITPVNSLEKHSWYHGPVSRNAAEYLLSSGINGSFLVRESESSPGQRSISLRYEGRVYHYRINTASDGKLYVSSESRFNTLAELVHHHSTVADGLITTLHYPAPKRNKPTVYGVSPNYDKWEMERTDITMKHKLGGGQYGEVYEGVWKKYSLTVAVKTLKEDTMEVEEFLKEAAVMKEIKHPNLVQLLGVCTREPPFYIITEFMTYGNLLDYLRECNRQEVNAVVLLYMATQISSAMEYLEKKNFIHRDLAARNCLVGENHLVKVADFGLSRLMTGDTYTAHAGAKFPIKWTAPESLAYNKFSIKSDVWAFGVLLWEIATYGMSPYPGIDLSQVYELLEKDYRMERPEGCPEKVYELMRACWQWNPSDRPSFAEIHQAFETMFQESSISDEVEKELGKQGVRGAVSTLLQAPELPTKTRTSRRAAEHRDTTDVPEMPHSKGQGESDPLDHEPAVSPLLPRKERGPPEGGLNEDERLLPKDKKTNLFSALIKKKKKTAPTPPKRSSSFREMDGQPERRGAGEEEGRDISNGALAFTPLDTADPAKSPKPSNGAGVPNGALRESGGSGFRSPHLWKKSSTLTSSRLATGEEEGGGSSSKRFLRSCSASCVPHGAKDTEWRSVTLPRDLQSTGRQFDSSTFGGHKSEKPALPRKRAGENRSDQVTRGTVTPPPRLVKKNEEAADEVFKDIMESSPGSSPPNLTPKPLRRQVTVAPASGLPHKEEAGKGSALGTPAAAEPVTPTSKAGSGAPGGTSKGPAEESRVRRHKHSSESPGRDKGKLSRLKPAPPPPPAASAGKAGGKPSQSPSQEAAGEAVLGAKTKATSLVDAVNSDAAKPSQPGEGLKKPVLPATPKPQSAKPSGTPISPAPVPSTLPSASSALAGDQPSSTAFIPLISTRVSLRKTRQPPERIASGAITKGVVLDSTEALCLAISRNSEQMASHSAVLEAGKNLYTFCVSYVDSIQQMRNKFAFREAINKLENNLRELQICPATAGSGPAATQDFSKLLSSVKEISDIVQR
Sequence of Ras and Rab interactor 1/Tyrosine-protein kinase ABL1 (Q13671 whole entry): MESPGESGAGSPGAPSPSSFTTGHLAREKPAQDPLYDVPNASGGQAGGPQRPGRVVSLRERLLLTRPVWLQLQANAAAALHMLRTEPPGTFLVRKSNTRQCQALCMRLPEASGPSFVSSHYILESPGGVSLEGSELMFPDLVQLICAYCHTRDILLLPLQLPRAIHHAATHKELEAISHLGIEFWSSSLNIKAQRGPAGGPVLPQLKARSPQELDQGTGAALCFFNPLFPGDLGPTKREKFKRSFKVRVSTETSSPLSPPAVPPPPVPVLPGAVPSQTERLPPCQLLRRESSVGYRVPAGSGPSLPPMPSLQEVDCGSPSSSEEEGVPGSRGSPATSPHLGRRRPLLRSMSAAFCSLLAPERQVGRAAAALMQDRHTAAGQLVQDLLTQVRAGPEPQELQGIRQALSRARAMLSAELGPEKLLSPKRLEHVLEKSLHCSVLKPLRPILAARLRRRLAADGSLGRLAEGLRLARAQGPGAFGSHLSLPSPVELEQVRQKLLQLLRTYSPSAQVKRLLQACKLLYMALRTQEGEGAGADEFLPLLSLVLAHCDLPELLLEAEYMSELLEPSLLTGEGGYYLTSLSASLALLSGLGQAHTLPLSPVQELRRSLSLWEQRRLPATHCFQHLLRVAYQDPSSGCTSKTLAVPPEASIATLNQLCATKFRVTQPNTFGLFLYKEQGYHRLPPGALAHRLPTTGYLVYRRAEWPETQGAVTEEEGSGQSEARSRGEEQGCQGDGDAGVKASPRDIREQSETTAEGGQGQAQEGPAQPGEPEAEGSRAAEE
Sequence of ATP-dependent molecular chaperone HSP82 (C4YTQ8 whole entry): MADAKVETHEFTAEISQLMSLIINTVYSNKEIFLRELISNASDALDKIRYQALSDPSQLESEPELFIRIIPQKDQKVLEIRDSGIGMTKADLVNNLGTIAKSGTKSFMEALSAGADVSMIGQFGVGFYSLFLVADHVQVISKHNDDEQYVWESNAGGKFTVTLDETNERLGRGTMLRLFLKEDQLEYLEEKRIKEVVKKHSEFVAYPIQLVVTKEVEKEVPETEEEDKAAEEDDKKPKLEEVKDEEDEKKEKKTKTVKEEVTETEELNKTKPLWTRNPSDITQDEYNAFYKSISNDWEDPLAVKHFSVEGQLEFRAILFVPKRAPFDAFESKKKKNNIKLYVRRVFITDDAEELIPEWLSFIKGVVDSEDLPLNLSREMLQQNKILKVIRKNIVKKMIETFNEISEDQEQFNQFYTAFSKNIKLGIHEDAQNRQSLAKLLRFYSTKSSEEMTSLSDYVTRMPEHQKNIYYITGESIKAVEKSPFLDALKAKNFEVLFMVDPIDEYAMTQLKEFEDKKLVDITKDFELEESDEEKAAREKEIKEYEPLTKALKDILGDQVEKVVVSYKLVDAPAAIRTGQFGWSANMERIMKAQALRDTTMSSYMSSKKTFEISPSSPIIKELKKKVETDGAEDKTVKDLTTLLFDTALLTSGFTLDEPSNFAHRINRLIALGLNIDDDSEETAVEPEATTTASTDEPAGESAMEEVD

**Q.** For `CCOc1ccc(-c2cc(C)[n+](CCO)c(-c3ccc(OCC)cc3)c2)cc1.[O-][Cl+3]([O-])([O-])[O-]`, which EC50 [1] is on record?
**A.** > 160 µM (inactive)

**Q.** And the EC50 [2]?
**A.** > 38 µM (not active)

**Q.** And the EC50 [3]?
**A.** < 0.1 µM (active)

**Q.** What about the EC50 [4] of the same molecule?
**A.** > 60 µM (inconclusive)

**Q.** And the AC50 [5]?
**A.** 11.1 µM (active)

**Q.** What about the IC50 (Protein Wnt-3a) of the same molecule?
**A.** 50 µM (inactive)

**Q.** What about the EC50 (cells) of the same molecule?
**A.** 0.079 µM (active)

**Q.** With `CCCCCCCN(C(=O)CCl)c1cccc(C)c1` as the molecule, how does the EC50 (BJ [6]) read?
**A.** 0.36 µM (inconclusive)

**Q.** And the EC50 (BJ [7])?
**A.** 3.93 µM (inconclusive)

**Q.** What about the EC50 (BJ [8]) of the same molecule?
**A.** > 75 µM (inconclusive)

**Q.** What about the EC50 [9] of the same molecule?
**A.** 2.48 µM (inconclusive)

**Q.** And the EC50 (BJ [10])?
**A.** 3.17 µM (active)

**Q.** And the AC50 (Paired box protein Pax-8)?
**A.** 5.91 µM (active)

**Q.** What about the AC50 [11] of the same molecule?
**A.** 9.19 µM (active)

**Q.** For `N=c1c2c(-c3ccccc3)c(-c3ccccc3)n(Cc3ccco3)c2ncn1CCCn1ccnc1`, which EC50 (BJ [6]) is on record?
**A.** 9.46 µM (active)

**Q.** What about the EC50 (BJ [7]) of the same molecule?
**A.** 22.5 µM (active)

**Q.** And the EC50 (BJ [8])?
**A.** > 75 µM (not active)

**Q.** And the EC50 [9]?
**A.** 9.54 µM (active)

**Q.** What about the EC50 (BJ [10]) of the same molecule?
**A.** 1.81 µM (active)

**Q.** For `CN(Cc1c(F)cccc1Cl)C(=O)CNC(=O)c1ccc2c(c1)OCO2`, which IC50 [12] is on record?
**A.** 6.04 µM (active)

**Q.** Which IC50 [13] does the source give for `CCCCn1nnnc1C(c1cc2ccccc2o1)N1CCN(c2cc(C)nc3ccccc23)CC1` (stereo not given) here?
**A.** 9.12 µM (active)

**Q.** Which AC50 (Cytochrome P450 2C9) does the source give for `C=CCN1CCc2c(cc(O)c(O)c2Br)[C@H](c2ccccc2)C1` here?
**A.** 31.6 µM (inconclusive)

**Q.** And the AC50 (Cytochrome P450 3A4)?
**A.** inconclusive

**Q.** For `Cc1ccccc1/C=C1\SC(=S)N(/N=C/c2cc([N+](=O)[O-])ccc2O)C1=O`, which EC50 [1] is on record?
**A.** > 160 µM (inactive)

**Q.** And the EC50 [2]?
**A.** 2.01 µM (active)

**Q.** What about the EC50 [14] of the same molecule?
**A.** > 180 µM (inactive)

**Q.** And the EC50 [15]?
**A.** 20.7 µM (active)

**Q.** Which AC50 (Cytochrome P450 2C19) does the source give for `CCC(=O)O[C@H]1CC[C@H]2[C@@H]3CCC4=CC(=O)CC[C@]4(C)[C@H]3CC[C@]12C` [TESTOSTERONE PROPIONATE] here?
**A.** 10 µM (inconclusive)

**Q.** What about the AC50 (Cytochrome P450 2C9) of the same molecule?
**A.** 12.6 µM (inconclusive)

**Q.** And the AC50 (Cytochrome P450 3A4)?
**A.** inconclusive
